Assay results taken from patent US20100105724A1, “CRYSTALLINE AND AMORPHOUS FORMS OF PALONOSETRON HYDROCHLORIDE” (HELSINN HEALTHCARE SA, priority 2006, published 2010).
Each block holds one compound with its values, some of them ahead of it.

Experiments:
[1] = biological target: T1, 5-hydroxyltryptamine 3 receptor precursor (5-HT3 receptor) (Homo sapiens, UniProt P46098); details: in vitro, literature (Wong 1995; Eglen 1995); cited from earlier work
T1 sequence (P46098 24-478): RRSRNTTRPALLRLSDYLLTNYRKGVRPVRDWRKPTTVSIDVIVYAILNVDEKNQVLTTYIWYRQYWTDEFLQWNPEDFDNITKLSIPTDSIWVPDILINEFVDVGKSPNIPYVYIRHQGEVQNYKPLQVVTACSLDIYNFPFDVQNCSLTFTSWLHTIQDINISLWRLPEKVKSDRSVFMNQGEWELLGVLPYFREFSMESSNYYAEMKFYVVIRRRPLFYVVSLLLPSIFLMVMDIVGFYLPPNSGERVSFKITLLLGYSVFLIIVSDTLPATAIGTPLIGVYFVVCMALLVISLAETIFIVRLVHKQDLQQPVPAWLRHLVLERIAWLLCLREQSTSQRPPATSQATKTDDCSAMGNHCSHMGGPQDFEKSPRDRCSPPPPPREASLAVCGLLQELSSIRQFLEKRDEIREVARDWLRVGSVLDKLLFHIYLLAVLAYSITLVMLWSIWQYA

[2] = tested on: other receptors such as dopamine receptors; details: literature (Wong 1995; Eglen 1995); cited from earlier work
[3] = Physical stability determination of polymorphs and amorphous phase; assay type: physicochemical
Description: Physical Stability Determination—The physical stability of the polymorphs was determined by wetting the powders with water, suspending in ethanol, ethyl acetate, and exposing them to 93% relative humidity (RH) and 26% RH. The DSC thermogram and the x-ray diffraction pattern were obtained after a few days to determine if phase changes had occurred. The physical stability of the amorphous phase was determined by equilibrating a sample at 40° C., 75% RH for two weeks.

[4] = Hygroscopicity measurement (water absorption at constant relative humidity); assay type: physicochemical; details: for hygroscopicity: humidities up to 82% RH
Description: Hygroscopicity Measurement—Samples of 20-30 mg of the compound were weighed into small weighing bottles with ground glass tops. The bottles were dried in a 60° C. oven for 30 minutes. The samples were cooled in a dessicator containing anhydrous CaSO4 and then transferred to humidity chambers maintained at constant relative humidities with saturated salt solutions. The samples were weighed at different time intervals until equilibrium was reached. The percent moisture absorbed at a given time was calculated as follows: % Weight Change=((Wt−Wo)/Wo)×100 wherein W1=sample weight at given time after exposure to the indicated relative humidity, and Wo=initial sample weight.

Structure (SMILES): O=C1c2cccc3c2[C@H](CCC3)CN1[C@@H]1CN2CCC1CC2 (single isomer, unassigned) [Palonosetron]
affinity as an antagonist for the 5-HT3 receptor [1]: high affinity
affinity for other receptors such as dopamine receptors [2]: low affinity

phase change in suspension ([3]; suspended in ethanol for one week at ambient temperature (~25° C.)): converted to Form I
Structure (SMILES): Cl.O=C1c2cccc3c2[C@H](CCC3)CN1[C@@H]1CN2CCC1CC2 [Form II]

physical stability at high humidity ([3]; 93% relative humidity, two weeks, ambient temperature): deliquesced
physical stability as a suspension ([3]; suspension in ethanol): stable
physical stability as a suspension ([3]; suspension in ethyl acetate): stable
physical stability as a suspension ([3]; suspension in water): stable
Water absorbed ([4]; 50% relative humidity, 1 day): 0.02 weight %
Water absorbed ([4]; 50% relative humidity, 4 days): 0.14 weight %
Water absorbed ([4]; 50% relative humidity, 8 days): 0.05 weight %
Water absorbed ([4]; 75% relative humidity, 1 day): 0.15 weight %
Water absorbed ([4]; 75% relative humidity, 4 days): 0.22 weight %
Water absorbed ([4]; 75% relative humidity, 8 days): 0.22 weight %
Water absorbed ([4]; 82% relative humidity, 1 day): 0.14 weight %
Water absorbed ([4]; 82% relative humidity, 4 days): 0.25 weight %
Water absorbed ([4]; 82% relative humidity, 8 days): 0.54 weight %
moisture absorbed ([4]; 93% RH, after eight days): 26%
physical change on exposure to humidity ([4]; 93% RH, after eight days): turning into a paste
physical change on exposure to humidity ([4]; 93% RH, two weeks): liquefied
Water absorbed ([4]; 93% relative humidity, 1 day): 0.07 weight %
Water absorbed ([4]; 93% relative humidity, 4 days): 0.63 weight %
Water absorbed ([4]; 93% relative humidity, 8 days): 25.7 weight %
physical state of sample ([4]; 93% relative humidity, 8 days): Semi
Water absorbed (physical state printed) ([4]; 93% relative humidity, 15 days): Liquid
hygroscopicity [4]: not hygroscopic
Water absorbed ([4]; humidities up to 82%, after eight days): 0.5%
Structure (SMILES): Cl.O=C1c2cccc3c2[C@H](CCC3)CN1[C@@H]1CN2CCC1CC2 [Form I]

physical change on exposure to humidity ([4]; 93% RH, after eight days, hydrochloride): liquefies
hygroscopicity ([4]; hydrochloride): nonhygroscopic
Structure (SMILES): Cl.O=C1c2cccc3c2[C@H](CCC3)CN1[C@@H]1CN2CCC1CC2 [Palonosetron hydrochloride, (3aS)-2-[(S)-1-Azabicyclo [2.2.2]oct-3-yl]-2,3,3a,4,5,6-hexahydro-1-oxo-1Hbenz[de] isoquinoline hydrochloride]

physical stability at low humidity ([3]; 26% RH, two weeks): remained amorphous
phase change on equilibration ([3]; 40° C., 75% RH, two weeks): converted to Form I
solid form after deliquescence at ambient humidity ([3]; ambient humidity, subsequent to deliquescence): re-solidified as Form II
behaviour on exposure to ambient humidity ([3]; removed from the desiccator, ambient humidity): deliquesced immediately
Structure (SMILES): Cl.O=C1c2cccc3c2[C@H](CCC3)CN1[C@@H]1CN2CCC1CC2 [amorphous form]
